Values of other authors in patent US7192954B2, “Monocyclic anilide spirohydantoin CGRP receptor antagonists” (Merck & Co., Inc., priority 2003, dated 2007).
Ends that are not written are not given here.

What was measured:
marmoset = conditions: electrical stimulation of the trigeminal ganglion
rats = conditions: electrical stimulation of the dura mater, prior administration
rat = conditions: trigeminal ganglion stimulation

Molecule | increase in facial blood flow (marmoset) | increase of the diameter of the middle meningeal artery (rats) | increase of facial blood flow (rat)
NCCCC[C@H](NC(=O)[C@@H](Cc1cc(Br)c(O)c(Br)c1)NC(=O)N1CCC(N2Cc3ccccc3NC2=O)CC1)C(=O)N1CCN(c2ccncc2)CC1 [BIBN4096BS] | blocked | – | –
CGRP(8–37): a peptide CGRP antagonist (VTHRLAGLLSRSGGVVKNNFVPTNVGSKAF; ends and bridges not checked; UniProt P06881 90-119, looked up, fragment) | – | blocked | inhibited
